The text below walks through data of ChEMBL document CHEMBL1140504, “Mimetics of the tri- and tetrasaccharide epitope of GQ1balpha as myelin-associated glycoprotein (MAG) ligands” (Bioorg Med Chem, 2007).

Active and inactive are the calls of the source. The calls are words filed in the database; no cut-off is given here.

For the assay, the target named is T1, Myelin-associated glycoprotein (Homo sapiens) (UniProt P20916).
T1 sequence (whole entry): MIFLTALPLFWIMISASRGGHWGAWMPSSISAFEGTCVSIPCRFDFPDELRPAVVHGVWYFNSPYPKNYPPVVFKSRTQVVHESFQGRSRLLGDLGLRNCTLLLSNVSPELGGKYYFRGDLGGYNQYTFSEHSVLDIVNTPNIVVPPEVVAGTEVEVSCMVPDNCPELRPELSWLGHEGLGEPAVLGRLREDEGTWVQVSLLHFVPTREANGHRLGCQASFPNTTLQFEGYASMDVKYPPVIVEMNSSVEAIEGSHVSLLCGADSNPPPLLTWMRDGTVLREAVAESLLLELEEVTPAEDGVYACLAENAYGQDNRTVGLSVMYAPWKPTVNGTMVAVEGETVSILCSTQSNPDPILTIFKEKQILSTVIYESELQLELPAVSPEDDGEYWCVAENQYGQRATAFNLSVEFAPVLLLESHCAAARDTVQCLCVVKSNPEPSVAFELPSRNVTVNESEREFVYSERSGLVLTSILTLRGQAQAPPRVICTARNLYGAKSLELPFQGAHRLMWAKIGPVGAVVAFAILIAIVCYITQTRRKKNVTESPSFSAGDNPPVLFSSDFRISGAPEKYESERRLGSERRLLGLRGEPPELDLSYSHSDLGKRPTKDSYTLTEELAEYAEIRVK
As to the kind of experiment: Ratio of IC50 for drug to sodium (2S,4S,5R,6R)-5-acetami do-2-((2R,3R,4S,5S,6R)-2-((2R, 3R,4S,6S)-3-acetamido-6-(hydro xymethyl)-2-(2-(trimethylsilyl )ethoxy)-tetrahydro-2H-pyran-4 -yloxy)-3,5-dihydroxy-6-(hydro xymethyl)-tetrahydro-2H-pyran- 4-yloxy)-4-hydroxy-6-((1S,2R)- 1,2,3-trihydroxypropyl)-tetrah ydro-2H-pyran-2-carboxylate for human recombinant MAG N-terminal domain expressed in CHO cells. It counts as cell-based.
Turning to `CC(=O)N[C@H]1[C@H]([C@@H](O)[C@H](O)CO)O[C@@](OCc2ccccc2)(C(=O)O)C[C@@H]1O`, the Ratio IC50 was determined as 0.62.
Same read-out and setting: next, `CC(=O)N[C@H]1[C@H]([C@@H](O)[C@H](O)CO)O[C@@](Oc2cccc(-c3cn(CC(=O)O)nn3)c2)(C(=O)O)C[C@@H]1O`: 1.1; `CC(=O)N[C@H]1[C@H]([C@@H](O)[C@H](O)CO)O[C@@](Oc2cccc(-c3cn(-c4ccc(C(=O)O)cc4)nn3)c2)(C(=O)O)C[C@@H]1O`: 0.9.
In the case of `CC(=O)N[C@H]1[C@H]([C@@H](O)[C@H](O)CO)O[C@](OCc2cccc(Oc3ccccc3)c2)(C(=O)O)C[C@@H]1O`, the outcome was inactive.
Consider `CC(=O)N[C@H]1[C@H](OCC[Si](C)(C)C)O[C@H](CO[C@]2(C(=O)O)C[C@H](O)[C@@H](NC(C)=O)[C@H]([C@H](O)[C@H](O)CO)O2)C[C@@H]1O[C@@H]1O[C@H](CO)[C@H](O)[C@H](O[C@]2(C(=O)O)C[C@H](O)[C@@H](NC(C)=O)[C@H]([C@@H](O)[C@H](O)CO)O2)[C@H]1O`, for which the Ratio IC50 amounted to 4.
Regarding `CC(=O)N[C@H]1[C@H]([C@@H](O)[C@H](O)CO)O[C@](Oc2ccc(Oc3ccccc3)cc2)(C(=O)O)C[C@@H]1O`, the result was inactive.
For the compound `CC(=O)N[C@H]1[C@H]([C@@H](O)[C@H](O)CO)O[C@@](OCc2ccc(-c3ccccc3)cc2)(C(=O)O)C[C@@H]1O`, the Ratio IC50 came out at 0.38.
On the same count and under the same terms, for `CC(=O)N[C@H]1[C@H]([C@@H](O)[C@H](O)CO)O[C@@](Oc2ccc(Oc3ccccc3)cc2)(C(=O)O)C[C@@H]1O` the value was 0.89; for `CO[C@]1(C(=O)O)C[C@H](O)[C@@H](NC(C)=O)[C@H]([C@@H](O)[C@H](O)CO)O1`, 0.07.
Same read-out and setting: next, `CC(=O)N[C@H]1[C@H]([C@@H](O)[C@H](O)CO)O[C@@](Oc2cccc(-c3ccc(CC(=O)O)cc3)c2)(C(=O)O)C[C@@H]1O`: 1.
